Laboratory results taken from US20260356834A1, “ANTICONVULSIVE COMPOUNDS AND USES THEREOF” (Jazz Pharmaceuticals Research UK Limite, priority 2023, published 2026).
Where “and” joins values, the source holds several entries; their conditions need not be identical. Equal values may be shown once. Marks after values point to notes of the source that are not given here.

Legend:
[1] = system: RjOrl: Swiss mice; assay: mouse 6 Hz (44 mA) model of partial seizures; assay type: in vivo; settings: for Mean Forelimb Clonus +/− SEM: score 0-2; for Change from vehicle 2 (forelimb clonus): vs vehicle 2 (1:2:17)
Source text: The 6 Hz (44 mA) model of partial seizures, which detects anticonvulsant activity, follows that described by Brown et al. 1953.
[…] A decrease in forelimb clonus score is indicative of protection from seizure and an anticonvulsive effect.
When conducted at a 44 mA stimulus intensity in mice, the 6 Hz test can differentiate compounds with potential for the treatment of focal-onset seizures that are often resistant to current anti-epileptic drugs.
Male RjOrl: Swiss mice (Janvier Labs, 53940 Le Genest-Saint-Isle, France), 5 weeks old, weighing 27-38 g at the beginning of the experiment. Animals were acclimatized to the Test Facility for at least 5 days after delivery and randomly housed in groups of 5 to 8 in macrolon cages on wood litter with free access to food and water.
(§1) The animal house was maintained under artificial lighting (12 hours) between 7:00 and 19:00 in a controlled ambient temperature of 22±2 °C and relative humidity between 30-70%.
Before transcorneal stimulation, a drop of tetracaine solution (1%) was applied on each eye of the mouse for local anesthesia. Between 1-10 minutes later and at the designated pre-treatment (see below), the mice were administered a rectangular current (44 mA, rectangular pulse: 0.2 ms pulse width, 3 s duration, (6 Hz) via corneal electrodes connected to a constant current shock generator (Ugo Basile: type 7801).
The results for the number of seizures as reflected by forelimb clonus were recorded immediately after current administration. Forelimb clonus was scored as absent (0=no forelimb clonus), mild (1=clonus with one forelimb) and strong (2=clonus with both forelimbs). The experimenters were blinded to the treatment. […]
The administration volume was 10 mL/kg.
Due to the number of animals tested, the experiment was divided in 2 sub-experiments on 2 consecutive days with equivalent numbers of mice per group and per sub-experiment.
Data were discrete values so considered to be non-normally distributed based on validation data, therefore non-parametric tests were utilized. Quantitative data (scores) with the test substance were analyzed by comparing test compound-treated groups with the 1:2:17 vehicle control using Kruskal-Wallis test with Dunn's multiple comparisons test when the Kruskal-Wallis test was significant. Quantitative data with the reference substance were analyzed using Mann-Whitney U test as compared to saline vehicle.

[2] = system: DBA/2 mice; assay: mouse audiogenic seizure test; assay type: in vivo; settings: for Clonic convulsion - presence, Total / Tonic convulsion - presence, Total / Wild running - presence, Total: number of mice, n = 10
Source text: The Audiogenic Seizure Test, which detects anticonvulsant activity, follows that described by Durmüller et al., 1993. Mice of the DBA/2 strain undergo an age-dependent sequence of convulsions (wild-running, clonic convulsion, tonic convulsion and respiratory arrest) within 60 seconds of exposure to a loud sound of 110-120 dB. The type of convulsions are consistent with aspects of generalised seizure in humans.
Male DBA/2 mice (3-4 weeks old) were supplied by Janvier Labs (53940 Le Genest-Saint-Isle, France); weight range 6-13 g at the beginning of the experiment. Animals were acclimatized to the Test Facility for 1 day after delivery and randomly housed in groups of 5 in macrolon cages on wood litter with free access to food and water.
as §1
Mice were individually transferred (at 3-5 minutes intervals) from the preparation room into an adjacent experimental room and body temperature was measured using a rectal thermometer (Digital Laboratory Thermometer: Model BAT-12). Immediately after, they were placed in a Plexiglas jar (Diameter=40 cm; Height=35 cm) mounted with an electric bell (110-120 dB, supplier Leroy Merlin, France). Upon activating the bell, the occurrences and latencies to wild running fits, clonic and tonic seizures were measured. Deaths were also recorded. The bell was activated until a tonic seizure occurred, or for a maximum of 60 seconds.
The experiment included groups of 10 mice per group. Experimenters were only partially blinded to treatment group as pre-treatment times were different.
The test substance was evaluated at various doses, administered i.p. (10 ml/kg) 15 or 30 minutes before the test, and compared with a vehicle control group.
Due to the number of animals tested, the experiment was divided in 2 sub-experiments on 2 separate days (7 days apart) with 5 mice per group in each sub-experiment.
Data were tested for normality using d'Agostino-Pearson Test and found to not follow a normal distribution. Statistical outliers were not identified or removed because no behavioural outliers were identified. Quantitative data (latencies) with the test substance were analyzed by comparing treated groups with vehicle control using Kruskal-Wallis test followed by Dunn's multiple comparisons test. Quantitative data with the reference substance were analyzed using Mann-Whitney U test. Quantal data (frequencies) were analyzed by comparing treated groups with vehicle control using Fisher's Exact Probability test.

[3] = system: C57BL/6J mice; assay: mouse maximal electroshock seizure threshold model using minimal sample sizes (mini-MEST)
Procedure: An increase in seizure threshold is indicative of an anticonvulsive effect.
The ability of a test compound to alter the stimulus intensity, expressed as current (mA), required to induce the presence of tonic hind limb extensor convulsions, is assessed in the MEST.
In the mini-MEST test, a lower n number is used.
Male C57BL/6J mice were housed in groups of 6. Mice were kept under standard conditions (12 hour light cycle; light intensity of 25-75 lux) and fed a diet of certified rodent CR 14% protein rodent diet (LabDiet® 4CR4). Mice were 8-9 weeks old at the start of the study.
Naïve mice were acclimatised to the procedure room in their home cages for up to 7 days, with food and water available ad libitum.
All animals were weighed at the beginning of the study and randomly assigned to treatment groups based on a mean distribution of body weight across groups.
The first animal within a treatment group was given a shock at the expected or estimated CC50 current. For subsequent animals, the current was lowered or raised depending on the convulsions outcome from the preceding animal in log scale intervals.
Data generated from each treatment group were used to calculate the CC50±SEM values for the treatment group.
Vehicle: (5% ethanol, 10% Solutol® (Kolliphor® HS 15), 85% saline). 1 mL of ethanol, 2 mL of Solutol™ were warmed to 60 °C, in 17 mL of 0.9% saline.
Test compounds: 5-50 mg/kg in a 1:2:17 ethanol:Solutol®:saline formulation (as used for vehicle).

[4] = 10 mg/kg i.p., 15 min post dose
[5] = 10 mg/kg i.p., 30 min post dose
[6] = 10 mg/kg i.p., 60 min post dose
[7] = 30 mg/kg i.p., 30 min post dose

CCCc1cc(O)c(-c2c(C)ccn3ccnc23)c(O)c1 [Compound 2, 2-(7-Methylimidazo[1,2-a]pyridin-8-yl)-5-propylbenzene-1,3-diol]
Mean Forelimb Clonus +/− SEM ([1]; 10 mg/kg i.p., 30 min): 0.7 ± 0.1
Change from vehicle 2 (forelimb clonus) ([1]; 10 mg/kg i.p., 30 min): −22%
Mean Forelimb Clonus +/− SEM ([1]; 30 mg/kg i.p., 15 min): 0.7 ± 0.1
Change from vehicle 2 (forelimb clonus) ([1]; 30 mg/kg i.p., 15 min): −22%
Mean Forelimb Clonus +/− SEM ([1]; 60 mg/kg i.p., 30 min): 0.7 ± 0.1
Change from vehicle 2 (forelimb clonus) ([1]; 60 mg/kg i.p., 30 min): −22%
sedation ([1]; 100 mg/kg i.p.): slight sedation observed
Mean Forelimb Clonus +/− SEM ([1]; 100 mg/kg i.p., 30 min): 0.3 ± 0.1
Change from vehicle 2 (forelimb clonus) ([1]; 100 mg/kg i.p., 30 min): −67%
adverse signs ([1]; 10, 30 or 60 mg/kg i.p.): no adverse signs were noted
latency to tonic convulsions (significance in words) ([2]; 3 mg/kg i.p. vs vehicle): no significant differences
Clonic convulsion - latency, Change from vehicle ([2]; 3 mg/kg i.p., 30 min): +10%
Clonic convulsion - presence, Change from vehicle ([2]; 3 mg/kg i.p., 30 min): +25%
Tonic convulsion - latency, Change from vehicle ([2]; 3 mg/kg i.p., 30 min): +23%
Tonic convulsion - presence, Change from vehicle ([2]; 3 mg/kg i.p., 30 min): +14%
Wild running - latency, Change from vehicle ([2]; 3 mg/kg i.p., 30 min): +16%
Wild running - presence, Change from vehicle ([2]; 3 mg/kg i.p., 30 min): +11%
Clonic convulsion - presence, Total ([2]; 3 mg/kg i.p., 30 min): 10
Tonic convulsion - presence, Total ([2]; 3 mg/kg i.p., 30 min): 8
Wild running - presence, Total ([2]; 3 mg/kg i.p., 30 min): 10
latency to tonic convulsions (significance in words) ([2]; 10 mg/kg i.p. vs vehicle): significantly increased
Clonic convulsion - latency, Change from vehicle ([2]; 10 mg/kg i.p., 30 min): +44%
Clonic convulsion - presence, Change from vehicle ([2]; 10 mg/kg i.p., 30 min): −13%
Tonic convulsion - latency, Change from vehicle ([2]; 10 mg/kg i.p., 30 min): +400%*
Tonic convulsion - presence, Change from vehicle ([2]; 10 mg/kg i.p., 30 min): −57%
Wild running - latency, Change from vehicle ([2]; 10 mg/kg i.p., 30 min): +27%
Wild running - presence, Change from vehicle ([2]; 10 mg/kg i.p., 30 min): −11%
Clonic convulsion - presence, Total ([2]; 10 mg/kg i.p., 30 min): 7
Tonic convulsion - presence, Total ([2]; 10 mg/kg i.p., 30 min): 3
Wild running - presence, Total ([2]; 10 mg/kg i.p., 30 min): 8
latency to clonic convulsions (significance in words) ([2]; 30 mg/kg i.p. vs vehicle): significantly increased
latency to tonic convulsions (significance in words) ([2]; 30 mg/kg i.p. vs vehicle): significantly increased
latency to wild running (significance in words) ([2]; 30 mg/kg i.p. vs vehicle): significantly increased
Clonic convulsion - latency, Change from vehicle ([2]; 30 mg/kg i.p., 15 min): +574%**
Tonic convulsion - latency, Change from vehicle ([2]; 30 mg/kg i.p., 15 min): +400%**
Wild running - latency, Change from vehicle ([2]; 30 mg/kg i.p., 15 min): +1076%***
Clonic convulsion - presence, Total ([2]; 30 mg/kg i.p., 15 min): 2
Tonic convulsion - presence, Total ([2]; 30 mg/kg i.p., 15 min): 0
Wild running - presence, Total ([2]; 30 mg/kg i.p., 15 min): 2
latency to clonic convulsions (significance in words) ([2]; 3 and 10 mg/kg i.p. vs vehicle): no significant differences
latency to wild running (significance in words) ([2]; 3 and 10 mg/kg i.p. vs vehicle): no significant differences
number of mice displaying clonic convulsions (significance in words) ([2]; 3 or 10 mg/kg i.p.): no significant differences
number of mice displaying tonic convulsions (significance in words) ([2]; 3 or 10 mg/kg i.p.): no significant differences
number of mice displaying wild running (significance in words) ([2]; 3 or 10 mg/kg i.p.): no significant differences
CC50 +/− SEM [3, 4]: 67.5 ± 2.6 mA and 65.8 ± 1.9 mA
Change from vehicle (CC50) [3, 4]: 150% and 145%
CC50 +/− SEM [3, 5]: 35.3 ± 1.1 mA
Change from vehicle (CC50) [3, 5]: 32%
CC50 +/− SEM [3, 6]: 56.0 ± 1.6 mA
Change from vehicle (CC50) [3, 6]: 109%
CC50 +/− SEM [3, 7]: >131.0 mA
Change from vehicle (CC50) [3, 7]: 414%
